According to ChEMBL document CHEMBL5241114, “A comprehensive review of BET-targeting PROTACs for cancer therapy” (Bioorg Med Chem, 2022):

Tests used:
[1] = target: T1, Bromodomain-containing protein 4 (Homo sapiens, UniProt O60885); assay: Induction of BRD4 degradation in human HEK293T cells; type: cell-based
[2] = target: T1, Bromodomain-containing protein 4; assay: Induction of BRD4 degradation in human EOL1 cells; type: cell-based
[3] = target: T1, Bromodomain-containing protein 4; assay: Induction of BRD4 degradation in human EOL1 cells relative to control; type: cell-based
[4] = tested on: EOL1; assay: Antiproliferative activity against human EOL1 cells assessed as inhibition of cell growth; type: functional, cell-based
[5] = tested on: HL-60; assay: Antiproliferative activity against human HL-60 cells assessed as inhibition of cell growth; type: functional, cell-based
[6] = target: T1, Bromodomain-containing protein 4; assay: Induction of BRD4 degradation in human HeLa cells incubated for 24 hrs by Western blot analysis; type: cell-based
[7] = target: T1, Bromodomain-containing protein 4; assay: Binding affinity to BRD4 bromodomain 1 in human Ramos cells; type: cell-based
[8] = target: T1, Bromodomain-containing protein 4; assay: Induction of degradation of BRD4 (unknown origin)
[9] = tested on: MDA-MB-468; assay: Antitumor activity against human MDA-MB-468 cells xenografted in mouse assessed as tumor growth inhibition at 5 mg/kg, iv; type: functional; settings: read-out: TGI
[10] = tested on: MDA-MB-468; assay: Antiproliferative activity against human MDA-MB-468 cells; type: functional, cell-based
[11] = tested on: MV4-11; assay: Cytotoxicity against human MV4-11 cells measured after 96 hrs; type: functional, cell-based; settings: MV4-11, 96 h
[12] = Antiproliferative activity against human Burkitts lymphoma cells; type: functional; settings: Burkitts lymphoma cell
[13] = target: T1, Bromodomain-containing protein 4; assay: Induction of BRD4 degradation in human HD-MB03 cells at 100 nM measured at 12 hrs relative to control; type: cell-based
[14] = target: T1, Bromodomain-containing protein 4; assay: Induction of BRD4 (unknown origin) degradation at 1 uM relative to control
[15] = target: T1, Bromodomain-containing protein 4; assay: Induction of BRD4 degradation in human HD-MB03 cells measured after 12 hrs; type: cell-based
[16] = tested on: MV4-11; assay: Cytotoxicity against human MV4-11 cells; type: functional, cell-based
[17] = tested on: NAMALVA; assay: Antiproliferative activity against human NAMALVA cells; type: functional
[18] = Half life of the compound in DMSO; type: physicochemical
[19] = target: T2, Caspase-3/Caspase-7 (Homo sapiens, UniProt P42574+P55210); assay: Activation of caspase 3/7 in human 22Rv1 cells by Caspase-Glo reagent based analysis; type: cell-based
T2 sequence (P42574 whole entry): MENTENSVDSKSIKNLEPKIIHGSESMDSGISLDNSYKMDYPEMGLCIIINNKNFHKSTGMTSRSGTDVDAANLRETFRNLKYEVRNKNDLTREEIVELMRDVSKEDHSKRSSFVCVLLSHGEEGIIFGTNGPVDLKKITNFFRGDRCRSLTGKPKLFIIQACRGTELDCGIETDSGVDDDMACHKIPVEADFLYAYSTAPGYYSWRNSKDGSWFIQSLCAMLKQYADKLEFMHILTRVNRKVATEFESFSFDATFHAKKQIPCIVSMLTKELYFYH
T2 sequence (P55210 whole entry): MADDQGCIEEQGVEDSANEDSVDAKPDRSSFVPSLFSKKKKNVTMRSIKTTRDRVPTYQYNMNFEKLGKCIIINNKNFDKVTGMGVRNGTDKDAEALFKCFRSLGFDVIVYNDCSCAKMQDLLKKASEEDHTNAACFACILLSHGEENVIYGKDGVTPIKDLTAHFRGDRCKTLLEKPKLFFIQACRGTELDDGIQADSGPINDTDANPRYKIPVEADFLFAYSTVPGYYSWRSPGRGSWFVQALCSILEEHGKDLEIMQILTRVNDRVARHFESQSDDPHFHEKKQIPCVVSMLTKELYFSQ

[20] = tested on: SUD4; assay: Antiproliferative activity against human SU-DHL-4 cells assessed as reduction in cell viability measured after 48 hrs by MTT assay; type: functional
[21] = target: T1, Bromodomain-containing protein 4; assay: Induction of BRD4 degradation in human 231MFP cells at 10 uM incubated for 60 mins by Western blot analysis relative to control; type: cell-based
[22] = target: T1, Bromodomain-containing protein 4; assay: Induction of BRD4 degradation in human HEK293T cells at 10 uM measured at 6 hrs relative to control; type: cell-based
[23] = target: T1, Bromodomain-containing protein 4; assay: Induction of BRD4 degradation in human HEK293T cells at 20 uM relative to control; type: cell-based
[24] = tested on: BXPC-3; assay: Antiproliferative activity against human BXPC-3 cells assessed as inhibition of cell growth incubated for 72 hrs by MTT assay; type: functional, cell-based; settings: BXPC-3, 72 h
[25] = target: von Hippel-Lindau disease tumor suppressor (Homo sapiens, UniProt P40337); assay: Binding affinity to VHL (unknown origin) assessed as dissociation constant by isothermal titration calorimetry assay
Sequence of von Hippel-Lindau disease tumor suppressor (P40337 whole entry): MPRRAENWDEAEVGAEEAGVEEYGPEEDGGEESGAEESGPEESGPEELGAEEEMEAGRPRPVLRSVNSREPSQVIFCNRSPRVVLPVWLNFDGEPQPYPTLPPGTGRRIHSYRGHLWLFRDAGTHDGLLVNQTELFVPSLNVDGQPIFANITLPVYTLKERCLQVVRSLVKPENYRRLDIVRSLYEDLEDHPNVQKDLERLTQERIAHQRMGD

[26] = target: Bromodomain-containing protein 3 (Homo sapiens, UniProt Q15059); assay: Induction of BRD3 degradation in human HeLa cells measured after 4 hrs; type: cell-based
Sequence of Bromodomain-containing protein 3 (Q15059 whole entry): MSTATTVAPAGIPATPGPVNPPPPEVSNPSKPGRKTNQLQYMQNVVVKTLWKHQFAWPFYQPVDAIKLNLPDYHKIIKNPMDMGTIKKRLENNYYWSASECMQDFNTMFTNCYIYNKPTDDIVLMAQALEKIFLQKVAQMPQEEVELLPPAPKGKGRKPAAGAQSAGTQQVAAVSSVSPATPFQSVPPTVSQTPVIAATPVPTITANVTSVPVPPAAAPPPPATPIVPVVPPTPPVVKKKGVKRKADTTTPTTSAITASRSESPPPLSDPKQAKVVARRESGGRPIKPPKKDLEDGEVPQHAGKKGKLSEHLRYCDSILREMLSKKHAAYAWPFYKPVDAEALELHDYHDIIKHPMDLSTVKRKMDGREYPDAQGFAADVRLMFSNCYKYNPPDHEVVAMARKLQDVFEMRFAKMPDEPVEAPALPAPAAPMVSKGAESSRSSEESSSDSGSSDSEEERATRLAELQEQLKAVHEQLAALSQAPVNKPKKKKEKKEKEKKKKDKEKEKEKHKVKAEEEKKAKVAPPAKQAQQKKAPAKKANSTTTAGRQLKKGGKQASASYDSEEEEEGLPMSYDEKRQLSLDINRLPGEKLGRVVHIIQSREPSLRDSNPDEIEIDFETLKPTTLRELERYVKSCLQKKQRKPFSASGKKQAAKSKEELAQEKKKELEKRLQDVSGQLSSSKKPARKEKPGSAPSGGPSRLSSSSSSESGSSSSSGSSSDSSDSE

[27] = target: T1, Bromodomain-containing protein 4; assay: Induction of BRD4 degradation in human 22Rv1 cells assessed as downregulation of c-Myc expression at 250 nM measured after 2 hrs relative to control; type: cell-based
[28] = target: T1, Bromodomain-containing protein 4; assay: Induction of BRD4 degradation in human HeLa cells measured after 4 hrs; type: cell-based
[29] = target: Bromodomain-containing protein 2 (Homo sapiens, UniProt P25440); assay: Binding affinity to BRD2 BD1 (unknown origin) assessed as dissociation constant by isothermal titration calorimetry assay
Sequence of Bromodomain-containing protein 2 (P25440 whole entry): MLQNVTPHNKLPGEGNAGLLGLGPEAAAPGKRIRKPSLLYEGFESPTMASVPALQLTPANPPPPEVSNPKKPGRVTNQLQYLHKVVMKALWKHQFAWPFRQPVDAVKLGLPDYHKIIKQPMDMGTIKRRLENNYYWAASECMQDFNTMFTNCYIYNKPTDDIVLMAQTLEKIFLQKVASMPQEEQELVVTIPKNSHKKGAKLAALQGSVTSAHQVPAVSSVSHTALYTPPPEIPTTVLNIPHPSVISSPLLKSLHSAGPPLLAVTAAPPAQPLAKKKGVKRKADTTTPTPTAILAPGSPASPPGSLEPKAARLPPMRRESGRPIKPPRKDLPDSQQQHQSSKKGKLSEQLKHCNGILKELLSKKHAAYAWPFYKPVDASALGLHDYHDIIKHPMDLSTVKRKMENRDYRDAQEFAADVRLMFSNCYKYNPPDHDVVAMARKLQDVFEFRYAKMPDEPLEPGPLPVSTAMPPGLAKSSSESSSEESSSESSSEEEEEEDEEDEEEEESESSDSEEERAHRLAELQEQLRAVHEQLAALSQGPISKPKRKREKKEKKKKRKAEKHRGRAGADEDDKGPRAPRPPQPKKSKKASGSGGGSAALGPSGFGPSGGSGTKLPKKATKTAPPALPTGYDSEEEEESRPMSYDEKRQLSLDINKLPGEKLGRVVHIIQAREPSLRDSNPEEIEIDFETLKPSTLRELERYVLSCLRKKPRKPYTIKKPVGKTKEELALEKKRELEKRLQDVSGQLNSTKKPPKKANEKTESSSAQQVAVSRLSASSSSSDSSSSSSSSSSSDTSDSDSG

[30] = tested on: CWR22R; assay: Antiproliferative activity against human 22Rv1 cells assessed as reduction in cell viability incubated for 48 to 72 hrs by Celltiter-Glo cell viability assay; type: functional, cell-based
[31] = tested on: MV4-11; assay: Antiproliferative activity against human MV4-11 cells assessed as reduction in cell viability incubated for 48 to 72 hrs by Celltiter-Glo cell viability assay; type: functional, cell-based
[32] = target: T1, Bromodomain-containing protein 4; assay: Binding affinity to BRD4 BD2 (unknown origin) assessed as dissociation constant by isothermal titration calorimetry assay

For Cc1c(C(=O)NCCCCCNc2cccc3c2C(=O)N(C2CCC(=O)NC2=O)C3=O)sc2c1C(c1ccc(Cl)cc1)=N[C@@H](CC(=O)OC(C)(C)C)c1nnc(C)n1-2 (stereo partly specified), the DC50 [1] was 5 nM.
Work on CCS(=O)(=O)Cc1cc2c(cc1C(=O)NCCCCCCCCCCC(=O)N[C@H](C(=O)N1C[C@@H](O)C[C@H]1C(=O)NCc1ccc(-c3scnc3C)cc1)C(C)(C)C)N(c1ncc(F)cc1F)Cc1c[nH]c3c(=O)n(C)cc-2c13 yielded a DC50 [2] of 0.03 nM, an Emax [3] of over 99% and an IC50 [4] of 0.02 nM. For the same compound, the IC50 [5] was 0.03 nM.
With Cc1ncsc1-c1ccc(CNC(=O)[C@@H]2[C@@H](F)[C@@H](O)CN2C(=O)[C@@H](NC(=O)COCCOCCOCCNC(=O)C[C@@H]2N=C(c3ccc(Cl)cc3)c3c(sc(C)c3C)-n3c(C)nnc32)C(C)(C)C)cc1 the DC50 [6] was 1 nM.
For CCn1nc(C2CC2)cc1Nc1nc(C(=O)NCCCOCCOCCOCCCNc2cccc3c2C(=O)N(C2CCC(=O)NC2=O)C3=O)nc2[nH]c3cc(-c4c(C)noc4C)c(OC)cc3c12 (stereo unspecified), the IC50 [7] was 22 nM, the DC50 [8] was 5 nM and the inhibition in vivo at 5 mg/kg [9] was 85%. The IC50 [10] was under 10 nM, the IC50 [11] was 6 nM and the GI50 [12] was 400 nM. The Emax [13] was 63%, the Emax [14] was 93% and the DC50 [15] was 230 nM. It also gave an IC50 [16] of 1240 nM and a GI50 [17] of 340 nM.
Work on COc1cc(/N=N\c2cccc3c2CN(C2CCC(=O)NC2=O)C3=O)cc(OC)c1OCC(=O)NCCCCNC(=O)C[C@@H]1N=C(c2ccc(Cl)cc2)c2c(sc(C)c2C)-n2c(C)nnc21 (stereo partly specified) yielded a half-life [18] of 8.8 h.
Cc1ncsc1-c1ccc(CNC(=O)[C@@H]2C[C@@H](O)CN2C(=O)[C@@H](NC(=O)COCC(C)(COCCOCCOCCNC(=O)C[C@@H]2N=C(c3ccc(Cl)cc3)c3c(sc(C)c3C)-n3c(C)nnc32)COCCOCCOCCNC(=O)C[C@@H]2N=C(c3ccc(Cl)cc3)c3c(sc(C)c3C)-n3c(C)nnc32)C(C)(C)C)cc1 gave an EC50 [19] of 2 nM.
With Cc1sc2c(c1C)C(c1ccc(Cl)cc1)=N[C@@H](CC(=O)OC(C)(C)C)c1nnc(C)n1-2 the GC50 [20] was 3120 nM.
Work on Cc1sc2c(c1C)C(c1ccc(Cl)cc1)=N[C@@H](CC(=O)NCCCCOc1ccc(Oc3ccc(N(Cc4ccccc4)C(=O)CCl)cc3)cc1)c1nnc(C)n1-2 yielded an Activity [21] of 30%.
Work on Cc1sc2c(c1C)C(c1ccc(Cl)cc1)=N[C@@H](CC(=O)NCCOCCOCCOCCOCCN1CCOc3cc(N(CCC#N)C(=O)CCl)ccc31)c1nnc(C)n1-2 yielded an Emax [22] of 80% and a DC50 [1] of 1600 nM.
For O=C(CCl)N1CCCc2cc(O)ccc21, the Activity [23] was 35%.
Compound CCS(=O)(=O)Nc1ccc(Oc2ccc(F)cc2F)c(-c2cn(C)c(=O)c3[nH]ccc23)c1 [MIVEBRESIB] has an IC50 [24] of 1220 nM.
Compound COc1cc(CN(CCCCNC(=O)COc2cccc3c2C(=O)N(C2CCC(=O)NC2=O)C3=O)C(=O)C[C@@H]2N=C(c3ccc(Cl)cc3)c3c(sc(C)c3C)-n3c(C)nnc32)c([N+](=O)[O-])cc1OC (stereo partly specified) has an IC50 [7] of 7600 nM, a GI50 [12] of 400 nM and a GI50 [17] of 340 nM.
Cc1ncsc1-c1ccc2c(c1)OCCOCCOC[C@@H](NC(=O)C[C@H]1N=C(c3ccc(Cl)cc3)c3c(sc(C)c3C)-n3c(C)nnc31)COCCOCCOCC(=O)N[C@@H](C(C)(C)C)C(=O)N1C[C@H](O)C[C@H]1C(=O)NC2 gave a Kd [25] of 47 nM, a DC50 [26] of 25 nM and an Activity [27] of over 90%. For the same compound, the DC50 [28] was 125 nM, the Kd [29] was 180 nM and the EC50 [30] was 640 nM. It also gave an EC50 [31] of 300 nM and a Kd [32] of 180 nM.
